The results in this text go back to patent US20250295113A1, “COMPOSITION AND METHOD FOR CONTROLLING WEEDS” (priority 2022, published 2025).

Molecules are shown by their SMILES.

One data set deals with blanket crabgrass. As to the kind of experiment: Example 4: blanket crabgrass control trial in Floratam St Augustinegrass. The following applies: quinclorac 573 g ai/ha; two applications, 21-day interval. It counts as in vivo, blanket crabgrass (Digitaria serotina). From the text:
(§1) Two applications were made on a 21-day interval.

For data set [1], the system named is St Augustinegrass variety 'Floratam'. As to the kind of experiment: Example 1: Floratam St Augustinegrass phytotoxicity trial. The following applies: quinclorac alone, both formulations, 573 g ai/ha, two applications on 21-day interval.
The next data set concerns Torpedograss. Kind of data set: Example 3: Torpedograss control trial. It counts as in vivo, Torpedograss (Panicum repens). The note with it: quinclorac 573 g ai/ha with and without metcamifen 75 g ai/ha; two applications, 21-day interval.
Text: as §1

`O=C(O)c1c(Cl)ccc2cc(Cl)cnc12` [Quinclorac, 3,7-dichloro-8-quinolinecarboxylic acid]: in the data set on blanket crabgrass, the “blanket crabgrass control (in words)” value is “excellent, significant control”. Besides, the “injury to Floratam St Augustinegrass (in words)” value in data set [1] is on record as “significant injury”. Further, in the data set with Torpedograss, the “Torpedograss control / efficacy (in words)” value was “provided control of Torpedograss”.
